Where “and” joins values, the source holds several entries; their conditions need not be identical. Equal entries are not always repeated. Toxic doses and inconclusive results are not listed. Peptide text beside a SMILES is read from it. * marks the point of attachment. Boc = CC(C)(C)OC(=O)*; NHNH2 = NN*
System: P388 leukemia ip, CD2F1 mice, survival T/C
Assay: NCI In Vivo Anticancer Drug Screen. Data for tumor model P388 Leukemia (intraperitoneal) in CD2F1 (CDF1) mice
Settings: endpoint: median survival time, higher = longer survival
Outline: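 Mice carrying the transplanted tumor received test compound or vehicle. Survival was recorded in each group, and the value is the treated-group measurement divided by that of the vehicle-treated control group.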

[1] = dose: 50.0 mg/kg/injection, schedule: Q01DX005 (ip), vehicle: Klucel (hydroxypropylcellulose) (HPC)
[2] = dose: 100.0 mg/kg/injection, schedule: Q01DX005 (ip), vehicle: Klucel (hydroxypropylcellulose) (HPC)
[3] = dose: 200.0 mg/kg/injection, schedule: Q01DX005 (ip), vehicle: Klucel (hydroxypropylcellulose) (HPC)
[4] = dose: 60.0 mg/kg/injection, schedule: Q01DX005 (ip), vehicle: saline with Tween-80
[5] = dose: 120.0 mg/kg/injection, schedule: Q01DX005 (ip), vehicle: saline with Tween-80
[6] = dose: 240.0 mg/kg/injection, schedule: Q01DX005 (ip), vehicle: saline with Tween-80
[7] = dose: 50.0 mg/kg/injection, schedule: Q01DX009 (ip), vehicle: saline with Tween-80
[8] = dose: 50.0 mg/kg/injection, schedule: Q01DX009 (ip), vehicle: saline
[9] = dose: 100.0 mg/kg/injection, schedule: Q01DX009 (ip), vehicle: saline with Tween-80
[10] = dose: 100.0 mg/kg/injection, schedule: Q01DX009 (ip), vehicle: saline
[11] = dose: 200.0 mg/kg/injection, schedule: Q01DX009 (ip), vehicle: saline with Tween-80
[12] = dose: 200.0 mg/kg/injection, schedule: Q01DX009 (ip), vehicle: saline
[13] = dose: 400.0 mg/kg/injection, schedule: Q01DX009 (ip), vehicle: saline with Tween-80
[14] = dose: 12.5 mg/kg/injection, schedule: Q01DX009 (ip), vehicle: saline
[15] = dose: 25.0 mg/kg/injection, schedule: Q01DX009 (ip), vehicle: saline
[16] = dose: 100.0 mg/kg/injection, schedule: Q04DX003 (ip), vehicle: saline with Tween-80
[17] = dose: 200.0 mg/kg/injection, schedule: Q04DX003 (ip), vehicle: saline with Tween-80
[18] = dose: 400.0 mg/kg/injection, schedule: Q04DX003 (ip), vehicle: saline with Tween-80
[19] = dose: 100.0 mg/kg/injection, schedule: Q01DX001 (ip), vehicle: Klucel (hydroxypropylcellulose) (HPC)
[20] = dose: 200.0 mg/kg/injection, schedule: Q01DX001 (ip), vehicle: Klucel (hydroxypropylcellulose) (HPC)
[21] = dose: 400.0 mg/kg/injection, schedule: Q01DX001 (ip), vehicle: Klucel (hydroxypropylcellulose) (HPC)
[22] = dose: 50.0 mg/kg/injection, schedule: Q01DX009 (ip), vehicle: Klucel (hydroxypropylcellulose) (HPC)
[23] = dose: 100.0 mg/kg/injection, schedule: Q01DX009 (ip), vehicle: Klucel (hydroxypropylcellulose) (HPC)
[24] = dose: 200.0 mg/kg/injection, schedule: Q01DX009 (ip), vehicle: Klucel (hydroxypropylcellulose) (HPC)
[25] = dose: 50.0 mg/kg/injection, schedule: Q01DX005 (ip), vehicle: saline
[26] = dose: 100.0 mg/kg/injection, schedule: Q01DX005 (ip), vehicle: saline

For `Cc1ccc(/C=C/c2ccc3ccccc3c2)cc1`, the T/C (dose: 50.0 mg/kg/injection, schedule: Q01DX009 (ip), vehicle: other) was 108 % of control, the T/C (dose: 100.0 mg/kg/injection, schedule: Q01DX009 (ip), vehicle: other) was 98 % of control and the T/C (dose: 200.0 mg/kg/injection, schedule: Q01DX009 (ip), vehicle: other) was 120 % of control.

With `CC(C)(C)OC(=O)NC(Cc1ccccc1)C(=O)NC(CO)C(=O)NN` (stereo not drawn) (Boc-Phe-Ser-NHNH2; configuration not given here) the T/C [1] was 97 % of control, the T/C [2] was 95 % of control and the T/C [3] was 105 % of control.

`Cc1ccc2nc(CC(=O)c3ccc4ccccc4c3)c(=O)[nH]c2c1` was tested, and the T/C [4] was 99 % of control, the T/C [5] was 92 % of control and the T/C [6] was 94 % of control.

With `O=C(CN1CCCCC1)Nc1ccc(Br)cc1` the T/C [7] was 106 % of control, the T/C [8] was 103 % of control and 113 % of control and the T/C [9] was 100 % of control. For the same compound, the T/C [10] was 105 % of control, the T/C [11] was 111 % of control and the T/C [12] was 120 % of control. For the same compound, the T/C [13] was 102 % of control.

In the case of `CC1(C)N=C(N)N=C(N)N1c1ccc(CCC(=O)Nc2ccc(S(=O)(=O)F)cc2)c(Cl)c1`, the T/C (dose: 6.25 mg/kg/injection, schedule: Q01DX009 (ip), vehicle: saline) is reported as 157 % of control, the T/C (dose: 12.5 mg/kg/injection, schedule: Q01DX009 (ip), vehicle: saline with Tween-80) is reported as 187 % of control and the T/C [14] is reported as 200 % of control. The T/C (dose: 25.0 mg/kg/injection, schedule: Q01DX009 (ip), vehicle: saline with Tween-80) was 170 % of control, the T/C [15] was 209 % of control and the T/C [7] was 91 % of control. For the same compound, the T/C [8] was 190 % of control, the T/C [16] was 170 % of control and the T/C (dose: 132.0 mg/kg/injection, schedule: Q04DX003 (ip), vehicle: saline with Tween-80) was 100 % of control. For the same compound, the T/C [17] was 162 % of control and 190 % of control and the T/C [18] was 95 % of control.

With `CCOC(=O)c1c(C)csc1NC(C)=O` the T/C [9] was 120 % of control, the T/C [11] was 115 % of control and the T/C [13] was 115 % of control.

With `Cc1[nH]c2ccc(Br)cc2c1/C=N/NC(N)=S` the T/C [19] was 101 % of control, the T/C [20] was 97 % of control and the T/C [21] was 90 % of control.

With `O=C1C=C2CCCCCCCCC(C1)C2` (stereo unspecified) the T/C [1] was 99 % of control, the T/C [2] was 96 % of control and the T/C [3] was 89 % of control.

With `CCCCN(CCCC)CCOc1c[nH]c(=O)[nH]c1=O` the T/C [1] was 103 % of control and the T/C [2] was 106 % of control.

For `CNC(=O)OCCC(OC(=O)NC)C1CCC2C3CC=C4CC(OC(C)=O)CCC4(C)C3CCC12C` (stereo unspecified), the T/C [19] was 103 % of control, the T/C [20] was 104 % of control and the T/C [21] was 110 % of control.

In the case of `O=C1c2ccccc2C(=O)N1/N=C/c1cccc(Cl)c1`, the T/C (dose: 100.0 mg/kg/injection, schedule: Q04DX002 (ip), vehicle: saline with Tween-80) is reported as 100 % of control, the T/C (dose: 200.0 mg/kg/injection, schedule: Q04DX002 (ip), vehicle: saline with Tween-80) is reported as 93 % of control and the T/C (dose: 400.0 mg/kg/injection, schedule: Q04DX002 (ip), vehicle: saline with Tween-80) is reported as 89 % of control.

For `CCOC(=O)c1c(-c2ccccc2)csc1NC(=O)CN1CCCCC1`, the T/C (dose: 50.0 mg/kg/injection, schedule: Q01DX005 (ip), vehicle: saline with Tween-80) was 98 % of control, the T/C (dose: 100.0 mg/kg/injection, schedule: Q01DX005 (ip), vehicle: saline with Tween-80) was 114 % of control and the T/C (dose: 200.0 mg/kg/injection, schedule: Q01DX005 (ip), vehicle: saline with Tween-80) was 113 % of control.

In the case of `Nc1n[n+](C2CCCCC2)no1`, the T/C (dose: 3.13 mg/kg/injection, schedule: Q01DX009 (ip), vehicle: water) is reported as 111 % of control, the T/C (dose: 6.25 mg/kg/injection, schedule: Q01DX009 (ip), vehicle: water) is reported as 98 % of control and the T/C (dose: 12.5 mg/kg/injection, schedule: Q01DX009 (ip), vehicle: water) is reported as 101 % of control.

With `C=CCOc1cc2c(cc1C/C=C/c1cc(OC)c(OC)c(OC)c1)OCO2` the T/C (dose: 15.0 mg/kg/injection, schedule: Q01DX005 (ip), vehicle: saline with Tween-80) was 101 % of control, the T/C (dose: 30.0 mg/kg/injection, schedule: Q01DX005 (ip), vehicle: saline with Tween-80) was 104 % of control and the T/C [4] was 104 % of control and 89 % of control.

With `O=C(CI)Nc1cccc(C(=O)O)c1O` the T/C (dose: 12.5 mg/kg/injection, schedule: Q01DX009 (ip), vehicle: Klucel (hydroxypropylcellulose) (HPC)) was 101 % of control, the T/C (dose: 25.0 mg/kg/injection, schedule: Q01DX009 (ip), vehicle: Klucel (hydroxypropylcellulose) (HPC)) was 113 % of control and the T/C [22] was 99 % of control.

With `COc1cc(/C=C/C(=O)NCCCCN=[N+]=[N-])ccc1OCc1ccccc1` the T/C [4] was 93 % of control, the T/C [5] was 96 % of control and the T/C [6] was 97 % of control.

For `CC1(C)CN(Cc2ccccc2)C2OC1N(Cc1ccccc1)CC2(C)C`, the T/C [22] was 102 % of control, the T/C [23] was 99 % of control and the T/C [24] was 96 % of control.

With `C=CS(=O)(=O)c1cccc(N2C(=O)c3cc(S(=O)(=O)O)cc4c(N)c(S(=O)(=O)O)cc(c34)C2=O)c1` the T/C [25] was 107 % of control, the T/C [26] was 107 % of control and the T/C (dose: 200.0 mg/kg/injection, schedule: Q01DX005 (ip), vehicle: saline) was 100 % of control.

In the case of `CC(=O)Nc1ccc2nc3n(c(=O)c2c1)CCCC3`, the T/C [19] is reported as 101 % of control, the T/C [20] is reported as 101 % of control and the T/C [21] is reported as 100 % of control.

`CN(C)c1ccc(C(=O)Cc2ccc3ccccc3n2)cc1` was tested, and the T/C [22] was 92 % of control, the T/C [23] was 89 % of control and the T/C [24] was 102 % of control.

`Cc1cccc(NC(=O)Nc2ccccc2Cl)n1` was tested, and the T/C [22] was 102 % of control, the T/C [23] was 96 % of control and the T/C [24] was 93 % of control.

With `CCCCCCC(=O)/C=C/c1cccc(OCc2ccccc2)c1` the T/C [1] was 90 % of control, the T/C [2] was 87 % of control and the T/C [3] was 94 % of control.

With `CN=C(N)N/N=C(\C)c1ccc2c(c1)Cc1cc(/C(C)=N/NC(N)=NC)ccc1-2` the T/C (dose: 0.78 mg/kg/injection, schedule: Q04DX002 (ip), vehicle: saline with Tween-80) was 124 % of control, the T/C (dose: 6.25 mg/kg/injection, schedule: Q04DX002 (ip), vehicle: saline with Tween-80) was 154 % of control and the T/C (dose: 12.5 mg/kg/injection, schedule: Q04DX002 (ip), vehicle: saline with Tween-80) was 123 % of control.

With `CC1CN(c2ccc(Cl)cc2)CCOC(=O)O1` (stereo unspecified) the T/C (dose: 100.0 mg/kg/injection, schedule: Q01DX001 (ip), vehicle: saline with Tween-80) was 92 % of control, the T/C (dose: 200.0 mg/kg/injection, schedule: Q01DX001 (ip), vehicle: saline with Tween-80) was 95 % of control and the T/C (dose: 400.0 mg/kg/injection, schedule: Q01DX001 (ip), vehicle: saline with Tween-80) was 92 % of control.

For `Cc1ccc(-n2ncc3c(=O)n(-c4cccc(C)c4)c(=O)[nH]c32)cc1`, the T/C [22] was 99 % of control, the T/C [23] was 97 % of control and the T/C [24] was 96 % of control.

For `Cc1ccccc1NC(=O)Oc1ccc(Cl)cc1C(=O)c1ccccc1`, the T/C [4] was 100 % of control, the T/C [5] was 109 % of control and the T/C [6] was 103 % of control.

With `COc1ccc(-c2ccc(OC)c(OC)c2OC)c(N)c1` the T/C [16] was 99 % of control and 110 % of control, the T/C [17] was 104 % of control and 110 % of control and the T/C [18] was 114 % of control and 115 % of control.

With `c1ccc2c3c([nH]c2c1)C1CC2CCCCC2CN1CC3` (stereo unspecified) the T/C [4] was 94 % of control and the T/C [5] was 111 % of control.

In the case of `CN1CCN(CN2C(=O)C3C4C=CC(C3C2=O)C2C(=O)N(CN3CCN(C)CC3)C(=O)C42)CC1` (stereo unspecified), the T/C [14] is reported as 108 % of control, the T/C [15] is reported as 105 % of control and the T/C [8] is reported as 108 % of control. For the same compound, the T/C [10] was 113 % of control and the T/C [12] was 122 % of control.

With `O=C1c2sccc2C2NC12` (stereo unspecified) the T/C [25] was 91 % of control and the T/C [26] was 100 % of control.

For `COc1ccc2cc1Oc1ccc(cc1)C[C@H]1c3cc(c(OC)cc3CCN1C)Oc1c(O)c(OC)cc3c1[C@H](C2)N(C)CC3`, the T/C [15] was 106 % of control, the T/C [8] was 100 % of control and the T/C (dose: 50.0 mg/kg/injection, schedule: Q01DX009 (ip), vehicle: suspension in saline) was 103 % of control. For the same compound, the T/C [10] was 103 % of control and the T/C (dose: 100.0 mg/kg/injection, schedule: Q01DX009 (ip), vehicle: suspension in saline) was 102 % of control.

Reference: PubChem BioAssay AID330 (DTP/NCI, 2004)
